Results on three sequences are retold here after paper PMC7804942, “The amphibian peptide Yodha is virucidal for Zika and dengue viruses” (Scientific Reports, 2021).

For assay [1], the system named is ZIKV. The assay is described as follows: ZIKV neutralisation by mutant, enantiomer and variant peptides (strain not stated). Format: cell-based, Zika virus. The method, then: To further characterize Yodha peptide, we generated alanine-scanning mutants of the peptide, which removes the side chain, but maintains peptide conformation, allowing for the assessment of the significance of each amino acid within the larger structure (Fig. 4A). Each of 23 mutated peptides was tested for its (a) ability to neutralize ZIKV (Fig. 4B) and (b) toxicity against human RBC, if any (Fig. 4C).
So next, we sought to determine how common this peptide or its analogs are in host defense peptides isolated from elsewhere in the world. […] We then determined the extent to which any of these variant peptides can neutralize ZIKV. […] We also generated a series of mutant Yodha peptides, including one which lacks the C terminal DDQERC, a short 12 peptide fragment that lacks the EEERGA from variant #12, and a S1P peptide that replace S1-P in the full-length Yodha (Fig. 5D) and tested their activity against ZIKV (Fig. 5D).
(§1) Peptides were incubated with ZIKV (100 FFU/well) for 2 h at 37 °C. This incubated mixture was used to infect Vero cells for 1.5 h at 37 °C. Cells and inoculum were overlaid with 2% methylcellulose solution (OptiMEM; Gibco) and incubated for 72 h at 37 °C. Cells were washed with PBS and fixed with a 1:1 methanol/acetone mixture for 30 min. Cells were blocked with 5% milk/PSB at room temperature for 20 min and incubated with primary antibody (anti-flavivirus mouse 4G2[10] antibody) for 2 h at 37 °C. Then, cells were incubated with secondary antibody (HRP-conjugated goat anti-mouse IgG, Cell Signaling) for 1 h at 37 °C. Cells were developed with TrueBlue Peroxidase Substrate (KPL). Plates were read on a CTL-ImmunoSpot S6 Micro analyzer.

Assay [2] relates to DENV3. The settings on record: FFA. The method, then: Dengue virus strains 1, 2, 3 and 4 were treated with wither Yodha or control OVA peptide at (A) 50 µM (B) 160 µM concentration and the % of viral focus forming units were determined. (C) IC50 measurement of Yodha in DENVs infection by FFA. […] OVA peptide was used a negative control.
as §1

Where no end group is shown, it is not given here.

Regarding “PMLLLFFLGTISLSLCQEEERGA [variant #12, brevinin-2KK2, naturally occurring variant of Yodha from Rana kukunoris]”, the “increased effect against ZIKV than Yodha peptide” value in assay [1] was 1.6 fold. “PMLLLFFLGTISLSLCQ [truncated Yodha variant 12]”: the “efficiency against DENV3 compared to the full length Yodha peptide” value in assay [2] (dose escalation) is recorded as “very efficient”. The IC50 in assay [2] (read-out: IC50 for DENV3) worked out at 30 µM. The “activity of truncated and S1P mutant peptides against ZIKV versus WT Yodha” value in assay [1] is “significantly improved activity”. With “PMLLLFFLGTISLSLCQEERGA [variant 21, naturally occurring variant of Yodha isolated from the frog I. temporalis]”, the “virucidal activity of naturally occurring variants against ZIKV” value in assay [1] is “exhibited activity”.

A word on the IC50: it is the midpoint of a concentration-inhibition curve.
